# Measured values taken from patent US9708309B2, “Arylcyclopropylamine based demethylase inhibitors of LSD1 and their medical use” (Oryzon Genomics S.A., priority 2010, dated 2017).
# “Also recorded” adds a separate entry of the source.
# How the values were obtained:
# [1] = target: LSD1 protein (Homo sapiens (Human), UniProt O60341); settings: 25° C., H3-K4me2 peptide
# Experimental: The kinetic parameters of LSD1 demethylase inhibition were obtained using the peroxidase-coupled reaction method. […] The final DMSO concentration was 0.7% and constant in all assay wells.
# The conversion of the Amplex® Red reagent to resorufin due to generation of H2O2 was continuously monitored by fluorescence (excitation at 540 nm, emission at 590 nm) using a microplate reader (Infinite 200, Tecan). A solution of 1 μM H2O2 was used to calibrate the fluorescence signal and the temperature was kept constant at 25° C.
# Briefly, progress curves obtained in the presence of test compound were fit to derive kobs (k) based on the following equation:
# The kobs values were then used to derive the kinetic constant by using the following equations (Kitz and Wilson analysis):
# [2] = target: MAO-B (Homo sapiens (Human), UniProt P27338); settings: ratio of kinact/KI MAO-B over MAO-A
# Experimental: For MAO-B, the protein was kept between 1.8 and 3.6 ng/ul (Sigma M7441) and kynuramine (Sigma) at 50 uM was used as substrate.
# [3] = target: Human recombinant MAO-A (Homo sapiens (Human), UniProt P21397); assay: biochemical
# Sequence of Human recombinant MAO-A (P21397 whole entry): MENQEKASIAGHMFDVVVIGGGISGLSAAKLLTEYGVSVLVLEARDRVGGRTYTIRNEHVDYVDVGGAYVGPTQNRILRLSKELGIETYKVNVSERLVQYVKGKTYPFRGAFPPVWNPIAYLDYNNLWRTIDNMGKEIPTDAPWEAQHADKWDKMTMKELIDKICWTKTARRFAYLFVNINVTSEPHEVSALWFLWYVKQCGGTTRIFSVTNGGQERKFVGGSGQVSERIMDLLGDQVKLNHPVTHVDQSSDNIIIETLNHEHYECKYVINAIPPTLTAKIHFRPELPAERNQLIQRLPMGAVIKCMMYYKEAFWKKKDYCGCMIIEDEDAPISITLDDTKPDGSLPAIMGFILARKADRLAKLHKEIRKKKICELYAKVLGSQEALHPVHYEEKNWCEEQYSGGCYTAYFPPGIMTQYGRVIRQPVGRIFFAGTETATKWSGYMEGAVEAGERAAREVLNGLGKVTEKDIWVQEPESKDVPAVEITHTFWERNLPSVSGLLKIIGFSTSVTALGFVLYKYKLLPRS
# Text: Human recombinant monoamine oxidase proteins MAO-A and MAO-B were purchased from Sigma Aldrich. […] In order to monitor MAO enzymatic activities and/or their inhibition rate by inhibitor(s) of interest, a fluorescent-based (inhibitor)-screening assay was set up. 3-(2-Aminophenyl)-3-oxopropanamine (kynuramine dihydrobromide, Sigma Aldrich), a non fluorescent compound was chosen as a substrate. Kynuramine is a non-specific substrate for both MAOs activities. While undergoing oxidative deamination by MAO activities, kynuramine is converted into 4-hydroxyquinoline (4-HQ), a resulting fluorescent product.
# The monoamine oxidase activity was estimated by measuring the conversion of kynuramine into 4-hydroxyquinoline. Assays were conducted in 96-well black plates with clear bottom (Corning) in a final volume of 100 μL. […]
# After leaving the enzyme(s) interacting with the inhibitor, 60 to 90 μM of kynuramine was added to each reaction for MAO-B and MAO-A assay respectively, and the reaction was left for 1 hour at 37° C. in the dark. […] The conversion of kynuramine to 4-hydroxyquinoline, was monitored by fluorescence (excitation at 320 nm, emission at 360 nm) using a microplate reader (Infinite 200, Tecan). Arbitrary units were used to measure levels of fluorescence produced in the absence and/or in the presence of inhibitor.
# The Ki (IC50) of each inhibitor was determined at Vmax/2.
# Sequence of MAO-B (P27338 whole entry): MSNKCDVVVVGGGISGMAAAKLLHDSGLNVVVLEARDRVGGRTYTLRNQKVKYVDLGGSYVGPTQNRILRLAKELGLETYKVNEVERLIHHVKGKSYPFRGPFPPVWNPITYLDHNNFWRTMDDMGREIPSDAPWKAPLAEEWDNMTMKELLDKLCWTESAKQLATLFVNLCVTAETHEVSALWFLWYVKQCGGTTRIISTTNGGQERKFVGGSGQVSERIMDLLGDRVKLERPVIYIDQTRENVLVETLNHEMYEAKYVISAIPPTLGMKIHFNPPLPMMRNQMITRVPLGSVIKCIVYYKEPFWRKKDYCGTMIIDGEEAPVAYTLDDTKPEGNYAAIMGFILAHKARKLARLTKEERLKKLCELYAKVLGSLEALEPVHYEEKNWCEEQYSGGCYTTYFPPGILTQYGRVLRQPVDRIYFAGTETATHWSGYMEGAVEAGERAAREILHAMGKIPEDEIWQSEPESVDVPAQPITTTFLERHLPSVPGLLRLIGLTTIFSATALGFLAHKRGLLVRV
"Catalytic efficiency kinact/KI, LSD1 [1]",selectivity index kinact/KI for MAO-B/MAO-A [2],Ki [3] [µM],SMILES
not active; also recorded: Inactive,120,–,C#CCN[C@@H]1CCc2ccccc21 [Rasagiline]
–,–,1 to 40,"Nc1nnc(CN[C@H]2C[C@@H]2c2ccc(OCc3cccc(F)c3)cc2)o1 (relative stereo) [Example 12, 5-((((trans)-2-(4-((3-fluorobenzyl)oxy)phenyl)cyclopropyl)amino)methyl)-1,3,4-oxadiazol-2-amine]"
–,–,1 to 40,"Nc1nnc(CN[C@H]2C[C@@H]2c2ccc(OCc3ccc(Cl)cc3)cc2)o1 (relative stereo) [Example 14, 5-((((trans)-2-(4-((4-chlorobenzyl)oxy)phenyl)cyclopropyl)amino)methyl)-1,3,4-oxadiazol-2-amine]"
